Results: patent publication EP4810038A1, “METHOD FOR TREATING ALK-POSITIVE OR ROS1-POSITIVE NON-SMALL CELL LUNG CANCER” (Shenzhen TargetRx Co., Ltd., priority 2023, dated 2025)

Tested on: ALK-positive or ROS1-positive advanced non-small cell lung cancer
Assay: Phase I clinical trial, dose escalation and expansion phases: efficacy (RECIST 1.1)
Assay type: in vivo, human
Description: The anti-tumor efficacy is evaluated according to RECIST version 1.1. For patients initially evaluated as having a complete response (CR) or partial response (PR), efficacy should be confirmed at least 4 weeks later. In the patients with asymptomatic central nervous system (CNS) metastases, in addition to evaluating 5 extracranial target lesions, up to 5 intracranial target lesions will also be evaluated. The specific indicators are as follows:
"CR" is defined as the disappearance of all target lesions, and the diameters of the short axis of all the pathological lymph nodes (whether target or non-target lymph nodes) must be reduced to 10 mm or less.
"PR" is defined as a reduction of at least 30% in the total diameter of the target lesions, with the total diameter of the baseline as a reference value.
"PD" is defined as an increase of at least 20% in the total diameter of the target lesions, using the minimum total diameter in the study as a reference value (this value may include the total diameter of the baseline). In addition, the absolute value of the total diameter must increase by at least 5 mm (the appearance of one or more new lesions is also considered as progressive disease).
"SD" is defined as a state in which the reduction in target lesions is insufficient to achieve partial response and the increase is insufficient to achieve progressive disease.
"ORR" includes CR and PR, and is defined as the proportion of patients who achieve complete response or partial response.
"IC-ORR" includes CR or PR for confirmed intracranial lesions, and is defined as the proportion of the patients with complete response or partial response of intracranial lesions among the patients with intracranial lesions.
"DCR" is defined as the proportion of the patients who achieve response (PR+CR) and stable disease (SD) after a treatment.
"IC-DCR" is defined as the proportion of the patients who achieve intracranial response (PR+CR), intracranial stable disease (SD), and […] after a treatment among the patients with intracranial lesions.
"DOR" is defined as the time from the first assessment of CR or PR to progressive disease or death, and is only applicable to the patients who achieve response.
"IC-DOR" is defined as the time from the first assessment of intracranial CR or intracranial PR to progressive disease or death, and is only applicable to the patients whose intracranial lesions achieve response.
"TTR" is defined as the time from patient enrollment (first dose of investigational drug) to tumor response (CR/PR), based on the patients with objective response.
"IC-TTR" is defined as the time from patient enrollment (first dose of investigational drug) to intracranial tumor response (IC-CR/PR), based on the patients with intracranial objective response.
Approximately eight dose groups in total were set in the dose escalation phase, which were 5 (the starting dose), 10, 20, 40, 60, 80, 100, and 125 mg, respectively. Subjects in all the dose groups received a single dose on day 1 (D1), and the blood samples were collected for pharmacokinetic (PK) assay and tolerability observation. If no grade 2 or a higher-level adverse event related to the investigational drug occurred during the single-dose period (5 to 7 days) (if such events occurred, dose adjustments would be made based on the toxicity according to the protocol), the subject entered the multiple-dose period (i.e., treatment period) 5 to 7 days later (7 days after the first administration in the first dose group (i.e., starting the multiple-dose treatment on day 8), and the intervals for the subsequent dose groups were determined based on the obtained tolerability and PK data). […]

## [2H]C([2H])([2H])n1nc2c(c1C#N)-c1cnc(N)c(c1)O[C@H](C)c1cc(F)ccc1C(=O)N(C)C2 [compound A, (10R)-7-amino-12-fluoro-2-(methyl-d3)-10,16-dimethyl-15-oxo-10,15,16,17-tetrahydro-2H-8,4-(metheno)pyrazolo[4,3-h][2,5,11]benzoxadiazacyclotetradecine-3-carbonitrile]
intracranial, 10mg (N=1)
  BOR CR: 0 n (%)
  BOR NE: 0 n (%)
  BOR PD: 0 n (%)
  BOR PR: 1 (100) n (%)
  BOR SD: 0 n (%)
  Confirmed IC-ORR (95% CI): 1 (100) (2.5, 100.0) n (%)
  IC-DCR (95% CI): 1 (100) (2.5, 100.0) n (%)
  Median IC-DOR (95% CI): 5.55 (-, -) months
  Median IC-TTR (range): 1.35 (1.35, 1.35) months
intracranial, 20mg (N=1)
  BOR CR: 0 n (%)
  BOR NE: 0 n (%)
  BOR PD: 0 n (%)
  BOR PR: 1 (100) n (%)
  BOR SD: 0 n (%)
  Confirmed IC-ORR (95% CI): 1 (100) (2.5, 100.0) n (%)
  IC-DCR (95% CI): 1 (100) (2.5, 100.0) n (%)
  Median IC-TTR (range): 1.35 (1.35, 1.35) months
intracranial, 40mg (N=4)
  BOR CR: 0 n (%)
  BOR NE: 1 (25.0) n (%)
  BOR PD: 0 n (%)
  BOR PR: 0 n (%)
  BOR SD: 3 (75.0) n (%)
  Confirmed IC-ORR (95% CI): 0 (0.0, 60.2) n (%)
  IC-DCR (95% CI): 3 (75.0) (19.4, 99.4) n (%)
intracranial, 60mg (N=2)
  BOR CR: 0 n (%)
  BOR NE: 0 n (%)
  BOR PD: 0 n (%)
  BOR PR: 2 (100) n (%)
  BOR SD: 0 n (%)
  Confirmed IC-ORR (95% CI): 2 (100) (15.8, 100.0) n (%)
  IC-DCR (95% CI): 2 (100) (15.8, 100.0) n (%)
  Median IC-DOR (95% CI): 17.97 (-, -) months
  Median IC-TTR (range): 4.11 (1.35, 6.87) months
intracranial, 80mg (N=4)
  BOR CR: 0 n (%)
  BOR NE: 1 (25.0) n (%)
  BOR PD: 0 n (%)
  BOR PR: 1 (25.0) n (%)
  BOR SD: 2 (50.0) n (%)
  Confirmed IC-ORR (95% CI): 1 (25.0) (0.6, 80.6) n (%)
  IC-DCR (95% CI): 3 (75.0) (19.4, 99.4) n (%)
  Median IC-TTR (range): 1.51 (1.51, 1.51) months
intracranial, 100mg (N=2)
  BOR CR: 0 n (%)
  BOR NE: 0 n (%)
  BOR PD: 0 n (%)
  BOR PR: 0 n (%)
  BOR SD: 2 (100) n (%)
  Confirmed IC-ORR (95% CI): 0 (0.0, 84.2) n (%)
  IC-DCR (95% CI): 2 (100) (15.8, 100.0) n (%)
intracranial, 125mg (N=1)
  BOR CR: 0 n (%)
  BOR NE: 0 n (%)
  BOR PD: 0 n (%)
  BOR PR: 0 n (%)
  BOR SD: 1 (100) n (%)
  Confirmed IC-ORR (95% CI): 0 (0.0, 97.5) n (%)
  IC-DCR (95% CI): 1 (100) (2.5,100.0) n (%)
systemic, 5mg (N=1)
  BOR CR: 0 n (%)
  BOR NE: 0 n (%)
  BOR PD: 0 n (%)
  BOR PR: 0 n (%)
  BOR SD: 1 (100) n (%)
  Confirmed ORR (95% CI): 0 (0.0, 97.5) n (%)
  DCR (95% CI): 1 (100) (2.5, 100.0) n (%)
systemic, 10mg (N=1)
  BOR CR: 0 n (%)
  BOR NE: 0 n (%)
  BOR PD: 0 n (%)
  BOR PR: 0 n (%)
  BOR SD: 1 (100) n (%)
  Confirmed ORR (95% CI): 0 (0.0, 97.5) n (%)
  DCR (95% CI): 1 (100) (2.5, 100.0) n (%)
systemic, 20mg (N=1)
  BOR CR: 0 n (%)
  BOR NE: 0 n (%)
  BOR PD: 0 n (%)
  BOR PR: 1 (100) n (%)
  BOR SD: 0 n (%)
  Confirmed ORR (95% CI): 1 (100) (2.5, 100.0) n (%)
  DCR (95% CI): 1 (100) (2.5, 100.0) n (%)
  Median DOR (95% CI): 6.93 (-, -) months
  Median TTR (range): 1.35 (1.35, 1.35) months
systemic, 40mg (N=10)
  BOR CR: 0 n (%)
  BOR NE: 2 (20.0) n (%)
  BOR PD: 2 (20.0) n (%)
  BOR PR: 1 (10.0) n (%)
  BOR SD: 5 (50.0) n (%)
  Confirmed ORR (95% CI): 1 (10.0) (0.3, 44.5) n (%)
  DCR (95% CI): 6 (60.0) (26.2, 87.8) n (%)
  Median TTR (range): 2.73 (2.73, 2.73) months
systemic, 60mg (N=12)
  BOR CR: 0 n (%)
  BOR NE: 0 n (%)
  BOR PD: 1 (8.3) n (%)
  BOR PR: 6 (50.0) n (%)
  BOR SD: 5 (41.7) n (%)
  Confirmed ORR (95% CI): 6 (50.0) (21.1, 78.9) n (%)
  DCR (95% CI): 11 (91.7) (61.5, 99.8) n (%)
  Median DOR (95% CI): 12.45 (2.79, -) months
  Median TTR (range): 1.35 (1.35, 6.90) months
systemic, 80mg (N=11)
  BOR CR: 0 n (%)
  BOR NE: 1 (9.1) n (%)
  BOR PD: 1 (9.1) n (%)
  BOR PR: 4 (36.4) n (%)
  BOR SD: 5 (45.5) n (%)
  Confirmed ORR (95% CI): 4 (36.4) (10.9, 69.2) n (%)
  DCR (95% CI): 9 (81.8) (48.2, 97.7) n (%)
  Median DOR (95% CI): 12.48 (7.98, -) months
  Median TTR (range): 1.45 (1.35, 13.96) months
systemic, 100mg (N=3)
  BOR CR: 0 n (%)
  BOR NE: 0 n (%)
  BOR PD: 0 n (%)
  BOR PR: 2 (66.7) n (%)
  BOR SD: 1 (33.3) n (%)
  Confirmed ORR (95% CI): 2 (66.7) (9.4, 99.2) n (%)
  DCR (95% CI): 3 (100) (29.2, 100.0) n (%)
  Median DOR (95% CI): 5.57 (4.17, -) months
  Median TTR (range): 2.05 (1.35, 2.76) months
systemic, 125mg (N=3)
  BOR CR: 0 n (%)
  BOR NE: 0 n (%)
  BOR PD: 1 (33.3) n (%)
  BOR PR: 1 (33.3) n (%)
  BOR SD: 1 (33.3) n (%)
  Confirmed ORR (95% CI): 1 (33.3) (0.8, 90.6) n (%)
  DCR (95% CI): 2 (66.7) (9.4, 99.2) n (%)
  Median DOR (95% CI): 9.53 (-, -) months
  Median TTR (range): 1.38 (1.38, 1.38) months
